Experimental data taken from PubChem BioAssay AID248 (DTP/NCI, 2004).
Values joined by “and” are separate entries in the source; they are usually repeats but may differ in a detail not shown here. Equal entries are not always repeated. Toxic doses and inconclusive results are not listed. Rule as the data show it: active = T/C of 150% or more; inactive = T/C below 125%.

System: L1210 leukemia ip in BDF1 mice, survival T/C
Test: NCI In Vivo Anticancer Drug Screen. Data for tumor model L1210 Leukemia (intraperitoneal) in B6D2F1 (BDF1) mice
Details: endpoint: mean survival time, higher = longer survival
How it was run: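 Read-out is survival time, reported as the treated-group measurement over the vehicle-control measurement.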

[1] = dose: 100.0 mg/kg/injection, schedule: Q04DX002 (ip), vehicle: saline with Tween-80
[2] = dose: 200.0 mg/kg/injection, schedule: Q04DX002 (ip), vehicle: saline with Tween-80
[3] = dose: 100.0 mg/kg/injection, schedule: Q04DX003 (ip), vehicle: saline
[4] = dose: 200.0 mg/kg/injection, schedule: Q04DX003 (ip), vehicle: saline
[5] = dose: 400.0 mg/kg/injection, schedule: Q04DX003 (ip), vehicle: saline
[6] = dose: 50.0 mg/kg/injection, schedule: Q01DX001 (ip), vehicle: Klucel (hydroxypropylcellulose) (HPC)
[7] = dose: 100.0 mg/kg/injection, schedule: Q01DX001 (ip), vehicle: Klucel (hydroxypropylcellulose) (HPC)
[8] = dose: 100.0 mg/kg/injection, schedule: Q01DX009 (ip), vehicle: Klucel (hydroxypropylcellulose) (HPC)
[9] = dose: 100.0 mg/kg/injection, schedule: Q04DX003 (ip), vehicle: Klucel (hydroxypropylcellulose) (HPC)
[10] = dose: 200.0 mg/kg/injection, schedule: Q01DX009 (ip), vehicle: Klucel (hydroxypropylcellulose) (HPC)
[11] = dose: 200.0 mg/kg/injection, schedule: Q04DX003 (ip), vehicle: Klucel (hydroxypropylcellulose) (HPC)
[12] = dose: 400.0 mg/kg/injection, schedule: Q01DX009 (ip), vehicle: Klucel (hydroxypropylcellulose) (HPC)
[13] = dose: 400.0 mg/kg/injection, schedule: Q04DX003 (ip), vehicle: Klucel (hydroxypropylcellulose) (HPC)
[14] = dose: 100.0 mg/kg/injection, schedule: Q04DX003 (ip), vehicle: saline with Tween-80

Measured: T/C

CC(O)(c1ccc(Cl)cc1)C(c1ccccc1)c1ccccn1 (centres undefined)
inactive: dose: 50.0 mg/kg/injection, schedule: Q01DX009 (ip), vehicle: water 103 % of control | dose: 100.0 mg/kg/injection, schedule: Q01DX009 (ip), vehicle: water 95 % of control | dose: 100.0 mg/kg/injection, schedule: Q04DX003 (ip), vehicle: water 116 % of control | dose: 200.0 mg/kg/injection, schedule: Q01DX009 (ip), vehicle: water 96 % of control | dose: 200.0 mg/kg/injection, schedule: Q04DX003 (ip), vehicle: water 119 % of control | dose: 400.0 mg/kg/injection, schedule: Q01DX009 (ip), vehicle: water 97 % of control | dose: 400.0 mg/kg/injection, schedule: Q04DX003 (ip), vehicle: water 104 % of control

CCCCOP(=O)(/C=C/c1ccccc1)OCCCC
inactive: [1] 122 % of control | [2] 91 % of control

O=C(O)COc1ccc(F)c(Cl)c1
inactive: dose: 100.0 mg/kg/injection, schedule: Q04DX002 (ip), vehicle: saline 105 % of control | dose: 200.0 mg/kg/injection, schedule: Q04DX002 (ip), vehicle: saline 117 % of control | dose: 400.0 mg/kg/injection, schedule: Q04DX002 (ip), vehicle: saline 110 % of control

CC(C)=N/N=C(/C(=O)c1ccccc1)c1ccccc1
inactive: dose: 100.0 mg/kg/injection, schedule: Q01DX001 (ip), vehicle: saline 109 % of control | dose: 200.0 mg/kg/injection, schedule: Q01DX001 (ip), vehicle: saline 109 % of control | dose: 400.0 mg/kg/injection, schedule: Q01DX001 (ip), vehicle: saline 97 % of control

CC[n+]1c(C=Nc2ccc(N(C)C)cc2)sc2ccccc21
inactive: dose: 3.13 mg/kg/injection, schedule: Q04DX003 (ip), vehicle: carboxymethylcellulose (CMC) 107 % of control | dose: 6.25 mg/kg/injection, schedule: Q04DX003 (ip), vehicle: carboxymethylcellulose (CMC) 98 % of control | dose: 12.5 mg/kg/injection, schedule: Q04DX002 (ip), vehicle: carboxymethylcellulose (CMC) 104 % of control and 106 % of control | dose: 12.5 mg/kg/injection, schedule: Q04DX003 (ip), vehicle: carboxymethylcellulose (CMC) 96 % of control and 100 % of control | dose: 25.0 mg/kg/injection, schedule: Q04DX002 (ip), vehicle: carboxymethylcellulose (CMC) 109 % of control and 116 % of control

OC1CCC(O)CC1 (centres undefined)
inactive: [3] 100 % of control | [4] 100 % of control | [5] 115 % of control

O=C1c2cc(O)c(O)cc2O[C@H](c2ccc(O)c(O)c2)[C@H]1O
inactive: [3] 106 % of control | [4] 100 % of control | [5] 104 % of control

COC(=S)SCN(CSC(=S)OC)c1ccccc1Cl
inactive: [6] 111 % of control | [7] 101 % of control | [8] 109 % of control | [9] 103 % of control | dose: 200.0 mg/kg/injection, schedule: Q01DX001 (ip), vehicle: Klucel (hydroxypropylcellulose) (HPC) 103 % of control | [10] 109 % of control | [11] 95 % of control | dose: 400.0 mg/kg/injection, schedule: Q01DX001 (ip), vehicle: Klucel (hydroxypropylcellulose) (HPC) 98 % of control | [12] 109 % of control | [13] 103 % of control

N/C(=N\OC(=O)Nc1ccc(Cl)cc1)C(Cl)(Cl)Cl
inactive: [8] 94 % of control | [10] 90 % of control

O=S(=O)(c1ccccc1)C(I)I
inactive: dose: 10.0 mg/kg/injection, schedule: Q04DX002 (ip), vehicle: Klucel (hydroxypropylcellulose) (HPC) 96 % of control | dose: 20.0 mg/kg/injection, schedule: Q04DX002 (ip), vehicle: Klucel (hydroxypropylcellulose) (HPC) 94 % of control | dose: 40.0 mg/kg/injection, schedule: Q04DX002 (ip), vehicle: Klucel (hydroxypropylcellulose) (HPC) 100 % of control

ClC(Cl)=C1SCCCS1
inactive: dose: 100.0 mg/kg/injection, schedule: Q01DX001 (ip), vehicle: saline with Tween-80 96 % of control | dose: 200.0 mg/kg/injection, schedule: Q01DX001 (ip), vehicle: saline with Tween-80 108 % of control

C[N+](C)(C)CCS(=O)(=O)[O-]
inactive: dose: 100.0 mg/kg/injection, schedule: Q01DX009 (ip), vehicle: saline 90 % of control | dose: 200.0 mg/kg/injection, schedule: Q01DX009 (ip), vehicle: saline 95 % of control | dose: 400.0 mg/kg/injection, schedule: Q01DX009 (ip), vehicle: saline 95 % of control

CC(=O)OC(C(=O)NC(CC(C)C)C(=O)O)c1ccccc1 (centres undefined)
inactive: dose: 100.0 mg/kg/injection, schedule: Q01DX001 (ip), vehicle: acetone 98 % of control | dose: 200.0 mg/kg/injection, schedule: Q01DX001 (ip), vehicle: acetone 94 % of control | dose: 400.0 mg/kg/injection, schedule: Q01DX001 (ip), vehicle: acetone 98 % of control

CN1CCN(C(=S)Nc2ccccc2)CC1
inactive: dose: 25.0 mg/kg/injection, schedule: Q01DX001 (ip), vehicle: Klucel (hydroxypropylcellulose) (HPC) 98 % of control | [6] 106 % of control | [7] 97 % of control and 107 % of control

CC1Cc2ccccc2C1=O (centres undefined)
inactive: [14] 98 % of control | dose: 200.0 mg/kg/injection, schedule: Q04DX003 (ip), vehicle: saline with Tween-80 98 % of control | dose: 400.0 mg/kg/injection, schedule: Q04DX003 (ip), vehicle: saline with Tween-80 103 % of control

O=C(/C=C\C=C\c1ccc2c(c1)OCO2)N1CCCCC1
inactive: dose: 50.0 mg/kg/injection, schedule: Q01DX009 (ip), vehicle: saline with Tween-80 105 % of control | dose: 100.0 mg/kg/injection, schedule: Q01DX009 (ip), vehicle: saline with Tween-80 105 % of control | dose: 200.0 mg/kg/injection, schedule: Q01DX009 (ip), vehicle: saline with Tween-80 105 % of control

CC/C=C(/C#N)CC
inactive: [1] 104 % of control | [2] 93 % of control

c1ccc([P+](CCCCCCCCCC[P+](c2ccccc2)(c2ccccc2)c2ccccc2)(c2ccccc2)c2ccccc2)cc1
inactive: dose: 5.0 mg/kg/injection, schedule: Q01DX001 (ip), vehicle: saline 105 % of control | dose: 10.0 mg/kg/injection, schedule: Q01DX001 (ip), vehicle: saline 102 % of control | dose: 20.0 mg/kg/injection, schedule: Q01DX001 (ip), vehicle: saline 110 % of control

O=C(/C(=C\c1ccccc1)N1CCOCC1)c1ccc(Cl)cc1
inactive: [14] 92 % of control

COc1cc(NC(=O)Nc2cc([N+](=O)[O-])ccc2C)c(OC)cc1Cl
inactive: dose: 100.0 mg/kg/injection, schedule: Q04DX002 (ip), vehicle: Klucel (hydroxypropylcellulose) (HPC) 106 % of control | dose: 200.0 mg/kg/injection, schedule: Q04DX002 (ip), vehicle: Klucel (hydroxypropylcellulose) (HPC) 97 % of control | dose: 400.0 mg/kg/injection, schedule: Q04DX002 (ip), vehicle: Klucel (hydroxypropylcellulose) (HPC) 95 % of control

C/C(C(=O)O)=C(/Br)c1ccc([N+](=O)[O-])cc1
inactive: [8] 94 % of control | [9] 94 % of control | [10] 95 % of control | [11] 100 % of control | [12] 92 % of control | [13] 100 % of control

Cc1cccc(Cl)c1NC(=O)Nc1cccc(C(=O)O)c1
inactive: dose: 25.0 mg/kg/injection, schedule: Q01DX009 (ip), vehicle: Klucel (hydroxypropylcellulose) (HPC) 100 % of control | dose: 50.0 mg/kg/injection, schedule: Q01DX009 (ip), vehicle: Klucel (hydroxypropylcellulose) (HPC) 87 % of control | [8] 90 % of control | [10] 86 % of control | [12] 91 % of control

O=S(=O)(O)CNc1cc(Cl)cc(Cl)c1
inactive: [9] 90 % of control | [10] 93 % of control | [11] 88 % of control | [12] 91 % of control | [13] 92 % of control

O=C(NCCCl)n1cncn1
inactive: dose: 100.0 mg/kg/injection, schedule: Q01DX009 (ip), vehicle: acetone 100 % of control | dose: 100.0 mg/kg/injection, schedule: Q04DX003 (ip), vehicle: acetone 102 % of control | dose: 200.0 mg/kg/injection, schedule: Q01DX009 (ip), vehicle: acetone 92 % of control | dose: 200.0 mg/kg/injection, schedule: Q04DX003 (ip), vehicle: acetone 102 % of control | dose: 400.0 mg/kg/injection, schedule: Q01DX009 (ip), vehicle: acetone 103 % of control | dose: 400.0 mg/kg/injection, schedule: Q04DX003 (ip), vehicle: acetone 102 % of control
